Experimental data as given in patent publication US7118767B2, “Pharmaceutical composition for increasing the production of nitric oxide and IFN-γ, and process for preparation thereof” (Jakwang Co., Ltd., priority 2001, dated 2006).

Key:
macrophages [1] = assay: Inhibiting effect on iNOS production by NF-kB inhibitor (NO2^- concentration in macrophages); assay type: cell-based, mice
Protocol: (§1) The amount of NO production from macrophages was measured by Griess reaction by quantitizing nitrite (NO2^−), oxides of NO, accumulated on the broth. That is, 100 μL of Griess reagents in which 0.1% naphthylethylene diaminedihydrochloride and 1% sulfanilamide is mixed at the same amount and 100 μL of culture media was mixed, and after 10 minutes, absorbance was measured at 540 nm by ELISA reader. Standard curve using sodium nitrite as standard substance was drawn and the concentration of NO was determined from the absorbance.
Hereupon, macrophages were treated with recombinant IFN-γ (rIFN-γ) and liquids (1 mg/mL) of Example 1 followed by treatment with pyrrolidine dithiocarbamnate (PDTC) and N^α-Tosyl-phenylalanyl chloromethyl ketone (TPCK), which are NF-kB inhitors, respectively and the change of concentration of NO2^− was observed together with control group. The results are shown in the hereinbelow Table 1 [Inhibitory effect on iNOS production by NF-kB inhibitor].

macrophages [2] = assay: Inhibitory effect of N^GMMA on NO production induced by liquids of Example 1 in macrophages; assay type: cell-based, mice; details: macrophages with liquids (1 mg/mL) of Example 1 and IFN-γ; FIG. 3
Protocol: as §1
To investigate if iNOS production from macrophages by the composition of the present invention is included in L-arginine-dependent process, the macrophages were treated liquids (1 mg/mL) of Example 1 in the presence of IFN-γ and NGMMA, the competitive inhibitor of NO production, and the amount of NO production was measured by the same method as Experiment 2.

`S=C(S)N1CCCC1` [PDTC, pyrrolidine dithiocarbamnate] was tested, and the “Concentration of NO2^-” value (macrophages [1]; rIFN-γ (10 U/mL) + Liquids of Example 1 (1 mg/mL) + PDTC (100 μM)) was 10.5 ± 2.8.

In the case of `CNC(=N)NCCC[C@H](N)C(=O)O` [N^GMMA, N^G-monomethyl-L-arginine], the “amount of NO production as the amount of N^GMMA increases” value (macrophages [2]) is reported as “tendency to decrease”.

B1: rIFN-γ: recombinant IFN-γ (rIFN-γ), used at 10 U/mL (protein, UniProt P01579 24-161, looked up)
Interferon gamma: QDPYVKEAENLKKYFNAGHSDVADNGTLFLGILKNWKEESDRKIMQSQIVSFYFKLFKNFKDDQSIQKSVETIKEDMNVKFFNSNKKKRDDFEKLTNYSVTDLNVQRKAIHELIQVMAELSPAAKTGKRKRSQMLFRG
B1 was tested, and the “Concentration of NO2^-” value (macrophages [1]; rIFN-γ (10 U/mL) only) was 32 ± 3.2.
